# Results as given in PubChem BioAssay (NCI).
#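 Cells were grown in 96-well plates and exposed to each compound for 48 hours at five concentrations; endpoints were interpolated linearly between bracketing concentrations, or set to the highest concentration if not reached. GI50 is the concentration that inhibits growth by half. TGI: concentration producing complete growth inhibition.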
# Columns and labels:
# Experiment in all cases: growth of human tumour cells (NCI), 48 h
# K-562 leukemia = test system: K-562 leukemia
# SK-MEL-2 melanoma = test system: SK-MEL-2 melanoma
# NCI-H23 lung = test system: NCI-H23 lung
# EKVX NSCLC = test system: EKVX NSCLC
# HCC-2998 colon = test system: HCC-2998 colon
# 786-0 renal = test system: 786-0 renal
# HL-60(TB) leukemia = test system: HL-60(TB) leukemia
# A498 renal = test system: A498 renal
# KM12 colon = test system: KM12 colon
# IGROV1 ovarian = test system: IGROV1 ovarian
# SNB-75 CNS = test system: SNB-75 CNS
# HT29 colon = test system: HT29 colon
# LOX IMVI melanoma = test system: LOX IMVI melanoma
# PC-3 prostate = test system: PC-3 prostate
# DU-145 prostate = test system: DU-145 prostate
# NCI/ADR-RES ovarian = test system: NCI/ADR-RES ovarian
# SK-OV-3 ovarian = test system: SK-OV-3 ovarian
# NCI-H226 lung = test system: NCI-H226 lung
# HCT-15 colon = test system: HCT-15 colon
# OVCAR-5 ovarian = test system: OVCAR-5 ovarian
# TK-10 renal = test system: TK-10 renal
# HCT-116 colon = test system: HCT-116 colon
# MDA-MB-435 = test system: MDA-MB-435
# HS 578T breast = test system: HS 578T breast
# HOP-92 NSCLC = test system: HOP-92 NSCLC
# U251 CNS = test system: U251 CNS
# SK-MEL-5 melanoma = test system: SK-MEL-5 melanoma
# SW-620 colon = test system: SW-620 colon
# MDA-MB-231 breast = test system: MDA-MB-231 breast
# BT-549 breast = test system: BT-549 breast
# OVCAR-3 ovarian = test system: OVCAR-3 ovarian
# UACC-62 melanoma = test system: UACC-62 melanoma
# NCI-H460 lung = test system: NCI-H460 lung
# COLO 205 colon = test system: COLO 205 colon
# SN12C renal = test system: SN12C renal
# OVCAR-4 ovarian = test system: OVCAR-4 ovarian
# SNB-19 CNS = test system: SNB-19 CNS
# A549 NSCLC = test system: A549 NSCLC
# UACC-257 melanoma = test system: UACC-257 melanoma
# MOLT-4 leukemia = test system: MOLT-4 leukemia
# NCI-H522 lung = test system: NCI-H522 lung
# UO-31 renal = test system: UO-31 renal
# SF-268 CNS = test system: SF-268 CNS
# RPMI-8226 leukemia = test system: RPMI-8226 leukemia
# MALME-3M melanoma = test system: MALME-3M melanoma
# SF-295 CNS = test system: SF-295 CNS
# SK-MEL-28 melanoma = test system: SK-MEL-28 melanoma
# ACHN renal = test system: ACHN renal
# RXF 393 renal = test system: RXF 393 renal
# CCRF-CEM leukemia = test system: CCRF-CEM leukemia
# CAKI-1 renal = test system: CAKI-1 renal
# T-47D breast = test system: T-47D breast
# OVCAR-8 ovarian = test system: OVCAR-8 ovarian
# HOP-62 NSCLC = test system: HOP-62 NSCLC
# M14 melanoma = test system: M14 melanoma
# SF-539 CNS = test system: SF-539 CNS
# SR leukemia = test system: SR leukemia
smiles,measurement,setting,value
COc1cc(Nc2ncccc2C(=O)NCc2cn(Cc3cccc(Oc4ccccc4)c3)nn2)cc(OC)c1,GI50,K-562 leukemia,5.05 µM
same,TGI,K-562 leukemia,> 100 µM
same,GI50,SK-MEL-2 melanoma,6.68 µM
same,TGI,SK-MEL-2 melanoma,> 100 µM
same,GI50,NCI-H23 lung,6.22 µM
same,TGI,NCI-H23 lung,> 100 µM
same,GI50,EKVX NSCLC,6.33 µM
same,TGI,EKVX NSCLC,> 100 µM
same,GI50,HCC-2998 colon,9.6 µM
same,TGI,HCC-2998 colon,> 100 µM
same,GI50,786-0 renal,6.73 µM
same,TGI,786-0 renal,> 100 µM
same,GI50,HL-60(TB) leukemia,3.97 µM
same,TGI,HL-60(TB) leukemia,> 100 µM
same,GI50,A498 renal,4.18 µM
same,TGI,A498 renal,> 100 µM
same,GI50,KM12 colon,3.84 µM
same,TGI,KM12 colon,> 100 µM
same,GI50,IGROV1 ovarian,> 100 µM
same,TGI,IGROV1 ovarian,> 100 µM
same,GI50,SNB-75 CNS,3.98 µM
same,TGI,SNB-75 CNS,> 100 µM
same,GI50,HT29 colon,3.88 µM
same,TGI,HT29 colon,> 100 µM
same,GI50,LOX IMVI melanoma,5.1 µM
same,TGI,LOX IMVI melanoma,> 100 µM
same,GI50,PC-3 prostate,4.74 µM
same,TGI,PC-3 prostate,> 100 µM
same,GI50,DU-145 prostate,10.5 µM
same,TGI,DU-145 prostate,> 100 µM
same,GI50,NCI/ADR-RES ovarian,3.21 µM
same,TGI,NCI/ADR-RES ovarian,> 100 µM
same,GI50,SK-OV-3 ovarian,4.33 µM
same,TGI,SK-OV-3 ovarian,> 100 µM
same,GI50,NCI-H226 lung,9.82 µM
same,TGI,NCI-H226 lung,> 100 µM
same,GI50,HCT-15 colon,3.89 µM
same,TGI,HCT-15 colon,> 100 µM
same,GI50,OVCAR-5 ovarian,> 100 µM
same,TGI,OVCAR-5 ovarian,> 100 µM
same,GI50,TK-10 renal,51.6 µM
same,TGI,TK-10 renal,> 100 µM
same,GI50,HCT-116 colon,4.34 µM
same,TGI,HCT-116 colon,> 100 µM
same,GI50,MDA-MB-435,2.23 µM
same,TGI,MDA-MB-435,5.43 µM
same,GI50,HS 578T breast,> 100 µM
same,TGI,HS 578T breast,> 100 µM
same,GI50,HOP-92 NSCLC,46.7 µM
same,TGI,HOP-92 NSCLC,> 100 µM
same,GI50,U251 CNS,4.58 µM
same,TGI,U251 CNS,> 100 µM
same,GI50,SK-MEL-5 melanoma,3.11 µM
same,TGI,SK-MEL-5 melanoma,> 100 µM
same,GI50,SW-620 colon,3.88 µM
same,TGI,SW-620 colon,> 100 µM
same,GI50,MDA-MB-231 breast,5.33 µM
same,TGI,MDA-MB-231 breast,> 100 µM
same,GI50,BT-549 breast,7.16 µM
same,TGI,BT-549 breast,> 100 µM
same,GI50,OVCAR-3 ovarian,3.69 µM
same,TGI,OVCAR-3 ovarian,> 100 µM
same,GI50,UACC-62 melanoma,3.68 µM
same,TGI,UACC-62 melanoma,> 100 µM
same,GI50,NCI-H460 lung,3.98 µM
same,TGI,NCI-H460 lung,> 100 µM
same,GI50,COLO 205 colon,4.12 µM
same,TGI,COLO 205 colon,> 100 µM
same,GI50,SN12C renal,7.41 µM
same,TGI,SN12C renal,> 100 µM
same,GI50,OVCAR-4 ovarian,5.42 µM
same,TGI,OVCAR-4 ovarian,> 100 µM
same,GI50,SNB-19 CNS,9.64 µM
same,TGI,SNB-19 CNS,> 100 µM
same,GI50,A549 NSCLC,4.02 µM
same,TGI,A549 NSCLC,> 100 µM
same,GI50,UACC-257 melanoma,4.86 µM
same,TGI,UACC-257 melanoma,> 100 µM
same,GI50,MOLT-4 leukemia,4.86 µM
same,TGI,MOLT-4 leukemia,> 100 µM
same,GI50,NCI-H522 lung,3.31 µM
same,TGI,NCI-H522 lung,> 100 µM
same,GI50,UO-31 renal,5.25 µM
same,TGI,UO-31 renal,> 100 µM
same,GI50,SF-268 CNS,5.43 µM
same,TGI,SF-268 CNS,> 100 µM
same,GI50,RPMI-8226 leukemia,5.25 µM
same,TGI,RPMI-8226 leukemia,> 100 µM
same,GI50,MALME-3M melanoma,5.81 µM
same,TGI,MALME-3M melanoma,> 100 µM
same,GI50,SF-295 CNS,4.06 µM
same,TGI,SF-295 CNS,> 100 µM
same,GI50,SK-MEL-28 melanoma,4.14 µM
same,TGI,SK-MEL-28 melanoma,> 100 µM
same,GI50,ACHN renal,6.9 µM
same,TGI,ACHN renal,> 100 µM
same,GI50,RXF 393 renal,3.77 µM
same,TGI,RXF 393 renal,> 100 µM
same,GI50,CCRF-CEM leukemia,4.19 µM
same,TGI,CCRF-CEM leukemia,> 100 µM
same,GI50,CAKI-1 renal,6.3 µM
same,TGI,CAKI-1 renal,> 100 µM
same,GI50,T-47D breast,4.58 µM
same,TGI,T-47D breast,> 100 µM
same,GI50,OVCAR-8 ovarian,5.96 µM
same,TGI,OVCAR-8 ovarian,> 100 µM
same,GI50,HOP-62 NSCLC,6.31 µM
same,TGI,HOP-62 NSCLC,> 100 µM
same,GI50,M14 melanoma,4.8 µM
same,TGI,M14 melanoma,> 100 µM
same,GI50,SF-539 CNS,4.39 µM
same,TGI,SF-539 CNS,> 100 µM
CC1=C(C(=O)Nc2ccc(F)c(Cl)c2)C(c2ccccc2O)NC(=S)N1 (centres undefined),GI50,K-562 leukemia,22 µM
same,TGI,K-562 leukemia,> 50 µM
same,GI50,SK-MEL-2 melanoma,23.6 µM
same,TGI,SK-MEL-2 melanoma,> 50 µM
same,GI50,786-0 renal,> 50 µM
same,TGI,786-0 renal,> 50 µM
same,GI50,HL-60(TB) leukemia,> 50 µM
same,TGI,HL-60(TB) leukemia,> 50 µM
same,GI50,KM12 colon,> 50 µM
same,TGI,KM12 colon,> 50 µM
same,GI50,IGROV1 ovarian,> 50 µM
same,TGI,IGROV1 ovarian,> 50 µM
same,GI50,LOX IMVI melanoma,23.6 µM
same,TGI,LOX IMVI melanoma,> 50 µM
same,GI50,PC-3 prostate,40.6 µM
same,TGI,PC-3 prostate,> 50 µM
same,GI50,DU-145 prostate,17.3 µM
same,TGI,DU-145 prostate,45.7 µM
same,GI50,NCI/ADR-RES ovarian,> 50 µM
same,TGI,NCI/ADR-RES ovarian,> 50 µM
same,GI50,SK-OV-3 ovarian,> 50 µM
same,TGI,SK-OV-3 ovarian,> 50 µM
same,GI50,NCI-H226 lung,> 50 µM
same,TGI,NCI-H226 lung,> 50 µM
same,GI50,HCT-15 colon,45.1 µM
same,TGI,HCT-15 colon,> 50 µM
same,GI50,OVCAR-5 ovarian,> 50 µM
same,TGI,OVCAR-5 ovarian,> 50 µM
same,GI50,TK-10 renal,> 50 µM
same,TGI,TK-10 renal,> 50 µM
same,GI50,HCT-116 colon,> 50 µM
same,TGI,HCT-116 colon,> 50 µM
same,GI50,MDA-MB-435,32.2 µM
same,TGI,MDA-MB-435,> 50 µM
same,GI50,HS 578T breast,35 µM
same,TGI,HS 578T breast,> 50 µM
same,GI50,HOP-92 NSCLC,> 50 µM
same,TGI,HOP-92 NSCLC,> 50 µM
same,GI50,U251 CNS,30.2 µM
same,TGI,U251 CNS,> 50 µM
same,GI50,SK-MEL-5 melanoma,21.9 µM
same,TGI,SK-MEL-5 melanoma,> 50 µM
same,GI50,SW-620 colon,> 50 µM
same,TGI,SW-620 colon,> 50 µM
same,GI50,MDA-MB-231 breast,> 50 µM
same,TGI,MDA-MB-231 breast,> 50 µM
same,GI50,SR leukemia,34.8 µM
same,TGI,SR leukemia,> 50 µM
same,GI50,BT-549 breast,19.2 µM
same,TGI,BT-549 breast,49.4 µM
same,GI50,OVCAR-3 ovarian,12.6 µM
same,TGI,OVCAR-3 ovarian,42.6 µM
same,GI50,UACC-62 melanoma,> 50 µM
same,TGI,UACC-62 melanoma,> 50 µM
same,GI50,NCI-H460 lung,21.4 µM
same,TGI,NCI-H460 lung,> 50 µM
same,GI50,COLO 205 colon,> 50 µM
same,TGI,COLO 205 colon,> 50 µM
same,GI50,SN12C renal,> 50 µM
same,TGI,SN12C renal,> 50 µM
same,GI50,SNB-19 CNS,> 50 µM
same,TGI,SNB-19 CNS,> 50 µM
same,GI50,A549 NSCLC,19.6 µM
same,TGI,A549 NSCLC,> 50 µM
same,GI50,UACC-257 melanoma,19.8 µM
same,TGI,UACC-257 melanoma,> 50 µM
same,GI50,MOLT-4 leukemia,17.8 µM
same,TGI,MOLT-4 leukemia,> 50 µM
same,GI50,NCI-H522 lung,> 50 µM
same,TGI,NCI-H522 lung,> 50 µM
same,GI50,UO-31 renal,> 50 µM
same,TGI,UO-31 renal,> 50 µM
same,GI50,SF-268 CNS,9.43 µM
same,TGI,SF-268 CNS,> 50 µM
same,GI50,RPMI-8226 leukemia,21.6 µM
same,TGI,RPMI-8226 leukemia,> 50 µM
same,GI50,SF-295 CNS,35.4 µM
same,TGI,SF-295 CNS,> 50 µM
same,GI50,ACHN renal,> 50 µM
same,TGI,ACHN renal,> 50 µM
same,GI50,RXF 393 renal,2.15 µM
same,TGI,RXF 393 renal,> 50 µM
same,GI50,CAKI-1 renal,45.8 µM
same,TGI,CAKI-1 renal,> 50 µM
same,GI50,T-47D breast,> 50 µM
same,TGI,T-47D breast,> 50 µM
same,GI50,OVCAR-8 ovarian,12.9 µM
same,TGI,OVCAR-8 ovarian,> 50 µM
same,GI50,HOP-62 NSCLC,> 50 µM
same,TGI,HOP-62 NSCLC,> 50 µM
same,GI50,M14 melanoma,> 50 µM
same,TGI,M14 melanoma,> 50 µM
